Source: US8771691B2, “Methods for the treatment and the prognostic assessment of malignant pleural mesothelioma” (Inserm (Institut National de la Sante et de la Recherche …, priority 2008, dated 2014)

Columns and labels:
MSTO-211H cells [1] = assay: Collagen invasion assay (type I collagen); type: cell-based, human; details: 5x10^-6 M SR48692 or 1:50 anti-NTS antibody; 48 hours; controls 13% (untreated), 11% (DMSO)
Experimental: (§1) The human mesothelioma cell line, MSTO-211H, was selected because of its intense proliferative activity and its aggressive profile (ATCC CRL-2081, 211H). The MSTO-211H cells were grown in RPMI-1640 medium (Invitrogen, USA) supplemented with 10% fetal calf serum (PAATM) and 2 mM glutamine (Gibco®). Cells were stored at 37° in 5% CO2 atmosphere.
Collagen invasion assay was performed by using tissue culture inserts composed of a 8 μm porous polycarbonate membrane, placed as inner chamber in 24 well-tissue-culture dishes. This membrane was coated with […] of 2 mg/ml type I collagen diluted in RPMI-1640 medium (Collagen type I, rat tail, Upstate). The bottom chamber was filled with 500 μL RPMI-1640 medium supplemented with 10% fetal calf serum and 2 mM glutamine. 10^3 MSTO-211H cells were seeded on the top of the inner chamber. Cells were treated with 5×10^−6 M of NTSR1 antagonist SR48692 or with 1:50 solution of anti-NTS rabbit antibody (NA1230, Tebu-Bio). Cells were placed for 48 hours at 37° C. in 5% CO2 atmosphere. After incubation, non invasive cells on the upper surface of the collagen matrix were wiped off with cotton swabs. Filter membranes were fixed with 5% glutaraldehyde and remaining cells stained with 0.5% toluidine blue. Quantitation of invasive cells was carried out at the 400× magnification by using the software CELINA.

MSTO-211H cells [2] = assay: Wound healing assay (cell migration); type: cell-based, human; details: 10^-6 M; at 24 and 30 hours; 0.5% FCS; controls 27% (untreated), 30% (DMSO)
Experimental: as §1
In order to evaluate the impact of the neurotensinergic system on cell migration, a wound healing assay was performed. 1.75×10^6 MSTO-211H cells were plated per well in 6 well dishes containing the medium in order to reach confluence. After 24 hours cells were serum-starved and scarification was performed in a Moscona buffer with a 20 μl pipette tip. Cells were maintained in culture with low serum medium (0.5% FCS) and treated with 10^−6 M SR48692. Control cells were exposed or not to the SR48692 solvent, DMSO. Pictures were taken at the beginning and 24 and 30 hours later with a photonic microscope. The “remaining gap” was calculated as percentage between wound size at 30 hours and initial wound size.

MSTO-211H cells [3] = assay: Cellular growth of MSTO-211H cells; type: cell-based, human; details: 10^-6 M; cells counted after 24, 48 and 72 h
Experimental: as §1
Cellular growth was performed using 6 well-tissue-culture dishes. 15×10^4 MSTO-211H cells were seeded, after 24 h cells were washed twice with PBS, and complete media containing either 10^−6M SR 48692, a NTSR1 antagonist, or 10^−4M de DMSO was added to the cells. After 24, 48, and 72 h of growth, cells were trypsinized and counted with a cells coulter (Z1 Coulter® Particle Counter, Beckman Coulter™).

[4] = patients with MPM, randomized study, two arms; cited from earlier work

SMILES | cells that invaded the type I collagen (MSTO-211H cells [1]) | residual gap (% of original gap) (MSTO-211H cells [2]) | effect on cell growth (MSTO-211H cells [3]) | median survival [4]
COc1cccc(OC)c1-c1cc(C(=O)NC2(C(=O)O)C3CC4CC(C3)CC2C4)nn1-c1ccnc2cc(Cl)ccc12 (stereo not shown) [SR48692] | 4% | 48% | no effect | –
N.N.[Cl][Pt][Cl] [cisplatin] | – | – | – | 9.3 months
